Measurements as given in ChEMBL document CHEMBL1201862, “PubChem BioAssay data set” (2004).
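Briefly, cells in 96-well plates were exposed to five compound concentrations for 48 h, and endpoints were estimated by linear interpolation. The concentration for 50% growth inhibition is given as GI50.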 Activity calls are given as the source filed them. No stated cut-off is given here; in the data, active = GI50 up to about 1.1 µM and inactive = higher.

Legend:
Experiment in all cases: NCI tumour cell line growth inhibition, 48 h
M19-MEL = tested on: M19-MEL
RPMI-8226 = tested on: RPMI-8226
OVCAR-5 = tested on: OVCAR-5
SF-295 = tested on: SF-295
U-251 = tested on: U-251
NCI-H460 = tested on: NCI-H460
ACHN = tested on: ACHN
IGROV-1 = tested on: IGROV-1
CCRF-CEM = tested on: CCRF-CEM
HT-29 = tested on: HT-29
RXF 393 = tested on: RXF 393
NCI-H522 = tested on: NCI-H522
SNB-75 = tested on: SNB-75
OVCAR-3 = tested on: OVCAR-3
NCI-H226 = tested on: NCI-H226
SR = tested on: SR
PC-3 = tested on: PC-3
MCF7 = tested on: MCF7
Hs-578T = tested on: Hs-578T
MDA-MB-231 = tested on: MDA-MB-231

Compound | GI50 (M19-MEL) | GI50 (RPMI-8226) | GI50 (OVCAR-5) | GI50 (SF-295) | GI50 (U-251) | GI50 (NCI-H460) | GI50 (ACHN) | GI50 (IGROV-1) | GI50 (CCRF-CEM) | GI50 (HT-29) | GI50 (RXF 393) | GI50 (NCI-H522) | GI50 (SNB-75) | GI50 (OVCAR-3) | GI50 (NCI-H226) | GI50 (SR) | GI50 (PC-3) | GI50 (MCF7) | GI50 (Hs-578T) | GI50 (MDA-MB-231)
C[n+]1ccc2[nH]c3ccccc3c2c1 | > 100 µM (inactive) | > 100 µM (inactive) | > 58.3 µM (inactive) | > 100 µM (inactive) | > 100 µM (inactive) | > 77.4 µM (inactive) | > 100 µM (inactive) | > 100 µM (inactive) | > 100 µM (inactive) | > 100 µM (inactive) | > 100 µM (inactive) | > 100 µM (inactive) | > 100 µM (inactive) | > 100 µM (inactive) | 61 µM (inactive) | – | – | – | – | –
CC12CCC(C(=O)OC1=O)C2(C)C (stereo not drawn) | – | > 100 µM (inactive) | > 100 µM (inactive) | > 100 µM (inactive) | > 100 µM (inactive) | > 100 µM (inactive) | > 100 µM (inactive) | > 100 µM (inactive) | > 100 µM (inactive) | > 100 µM (inactive) | > 100 µM (inactive) | > 100 µM (inactive) | 82.4 µM (inactive) | > 100 µM (inactive) | > 100 µM (inactive) | 0.628 µM (active) | > 100 µM (inactive) | > 100 µM (inactive) | > 100 µM (inactive) | > 100 µM (inactive)
CCOc1ccccc1NC(=O)CC1Sc2ccccc2NC1=O (stereo not drawn) | 64.4 µM (inactive) | – | > 100 µM (inactive) | 43.6 µM (inactive) | 79.4 µM (inactive) | 44.1 µM (inactive) | 75.9 µM (inactive) | 45.5 µM (inactive) | 31.8 µM (inactive) | 55.3 µM (inactive) | > 100 µM (inactive) | 27.4 µM (inactive) | 31.2 µM (inactive) | 37.5 µM (inactive) | > 100 µM (inactive) | 21 µM (inactive) | – | – | – | –
CCC1=C(C)/C(=C/c2[nH]c(CBr)c(CC)c2C)N=C1CBr | 13.7 µM (inactive) | 5.66 µM (inactive) | > 10 µM (inactive) | 20.9 µM (inactive) | 11.3 µM (inactive) | 19 µM (inactive) | > 10 µM (inactive) | 18.5 µM (inactive) | 2.51 µM (inactive) | 12.5 µM (inactive) | 12.1 µM (inactive) | 2.81 µM (inactive) | 29.6 µM (inactive) | 16.1 µM (inactive) | – | – | – | – | – | –
C/C(=N\Nc1nnc(S)n1N)c1c(O)cc(C)oc1=O | > 100 µM (inactive) | – | – | > 100 µM (inactive) | > 100 µM (inactive) | > 100 µM (inactive) | > 100 µM (inactive) | – | > 100 µM (inactive) | > 100 µM (inactive) | – | > 100 µM (inactive) | > 100 µM (inactive) | – | > 100 µM (inactive) | > 100 µM (inactive) | – | – | – | –
CC(C)(Cl)C(Cl)CC/C(CBr)=C(\Cl)CBr (stereo not drawn) | – | 0.706 µM (active) | 2.29 µM (inactive) | 6.49 µM (inactive) | 1.83 µM (inactive) | 2.71 µM (inactive) | 3.66 µM (inactive) | 1.66 µM (inactive) | 0.15 µM (active) | 2.84 µM (inactive) | 1.53 µM (inactive) | 0.55 µM (active) | 2.23 µM (inactive) | 2.64 µM (inactive) | 1.79 µM (inactive) | 0.443 µM (active) | 3.15 µM (inactive) | 2.49 µM (inactive) | 1.85 µM (inactive) | 2 µM (inactive)
N#CNCC(COCc1ccccc1)c1ccccc1 (stereo not drawn) | > 100 µM (inactive) | > 100 µM (inactive) | – | – | > 100 µM (inactive) | > 100 µM (inactive) | > 100 µM (inactive) | > 100 µM (inactive) | > 100 µM (inactive) | – | 99.1 µM (inactive) | > 100 µM (inactive) | 41.9 µM (inactive) | – | 98.4 µM (inactive) | – | – | – | – | –
CCOc1ccc(OCC)c([P+](c2ccccc2)(c2ccccc2)c2ccccc2)c1 | 0.4 µM (active) | 0.286 µM (active) | 0.407 µM (active) | 0.33 µM (active) | 0.204 µM (active) | 0.383 µM (active) | 1.65 µM (inactive) | 0.356 µM (active) | 0.322 µM (active) | 0.315 µM (active) | 0.968 µM (active) | – | 1.09 µM (active) | 0.162 µM (active) | 0.406 µM (active) | – | – | – | – | –
CCc1ccccc1NC(=O)C1=C(C)NC(C)=C(C(=O)Nc2ccccc2CC)C1c1ccccc1Cl | > 100 µM (inactive) | > 100 µM (inactive) | > 100 µM (inactive) | > 100 µM (inactive) | > 100 µM (inactive) | > 100 µM (inactive) | 47.4 µM (inactive) | > 100 µM (inactive) | 37.8 µM (inactive) | > 100 µM (inactive) | > 100 µM (inactive) | 69.5 µM (inactive) | 71.6 µM (inactive) | > 100 µM (inactive) | > 100 µM (inactive) | – | – | – | – | –
